Counter-ions that a name gives are not always drawn.
test system: MTT (mouse pheochromocytoma); experiment: IC50 of cell viability (ATP content); details: (24 or 48 h)
Summary of the method: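 MTT mouse pheochromocytoma cells, cultured overnight at 37°C, 5% CO2 in DMEM with 5% FBS and 1% horse serum, were exposed in white 1536-well plates to library compounds in DMSO at final 0.5 nM to 46 µM (8 concentrations) for 24 or 48 hrs. CellTiter-Glo luminescence was normalised to positive-control (100%) and DMSO (0%) wells. A four-parameter logistic fit gave the IC50.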

Structure (SMILES) | IC50 of cell viability
CN(C)[C@@H](Cc1ccccc1)c1ccccc1 [LEFETAMINE HYDROCHLORIDE] | > 46 µM
Nc1ccccc1C(=O)O [o-Anthranilic acid] | > 46 µM
COc1ccc(C(=O)/C(Br)=C/C(=O)O)cc1 [ACIDUM BROMEBRICUM] | > 46 µM
COC(=O)c1cncn1C(C)c1ccccc1 (stereo unspecified) [METOMIDATE HYDROCHLORIDE] | > 46 µM
CN1C2=CC(=O)/C(=N\NC(N)=O)C=C2CC1S(=O)(=O)[O-] (stereo unspecified) [CARBAZOCHROME SODIUM SULFONATE] | > 46 µM
CC(=O)OC1CC(OC2C(O)CC(OC3C(O)CC(O[C@H]4CC[C@]5(C)C6CC[C@]7(C)[C@@H](C8=CC(=O)OC8)[C@@H](O)C[C@]7(O)[C@@H]6CC[C@@H]5C4)OC3C)OC2C)OC(C)C1OC1OC(CO)C(O)C(O)C1O (stereo partly specified) [Lanatoside B] | > 46 µM
CNC(=O)Oc1cccc2ccccc12 [Carbaryl] | > 46 µM
COc1cc2c(N3CCN(C(=O)Nc4ccc(OC(C)C)cc4)CC3)ncnc2cc1OCCCN1CCCCC1 [Tandutinib] | > 46 µM
CN1C(=O)/C(=N\NC(N)=S)c2ccccc21 [METISAZONUM] | > 46 µM
N=C1NCCC(C2NC(=O)/C(=C/NC(N)=O)NC(=O)C(CNC(=O)CC(N)CCCN)NC(=O)C(CO)NC(=O)C(N)CNC2=O)N1 (stereo unspecified) [CAPREOMYCIN SULFATE] | > 46 µM
O=C(NNCNNC(=O)c1ccncc1)c1ccncc1 [Metazida] | > 46 µM
C/C=C/c1ccc(OC)cc1 [Anethole] | > 46 µM
CCN(CC)CCOC(=O)C1(C2CCCCC2)CCCCC1 [Dicyclomine] | > 46 µM
CC(C)(O/N=C(\C(=O)N[C@@H]1C(=O)N2C(C(=O)[O-])=C(C[n+]3ccccc3)CS[C@@H]12)c1csc(N)n1)C(=O)O.O.O.O.O.O [Ceftazidime pentahydrate] | > 46 µM
CCN(CC)C(=O)N[C@@H]1C[C@@H]2c3cccc4[nH]cc(c34)C[C@H]2N(C)C1 [R(+)-TERGURIDE] | > 46 µM
CC(=O)Nc1ncc([N+](=O)[O-])s1 [Nithiamide] | > 46 µM
CC(=O)Nc1cccc(O)c1 [METACETAMOL] | > 46 µM

Structure (SMILES) | IC50 of cell viability
CN(C)C1C(=O)C(C(N)=O)C(=O)C2(O)C(=O)C3C(=O)c4c(O)cccc4C(C)(O)C3C(O)C12 (stereo unspecified) [OXYTETRACYCLINE] | > 46 µM
[Na+].CCCC(C)C1(CC=C)C(=O)N\C(=N/C1=O)[S-] (stereo unspecified) [THIAMYLAL SODIUM] | > 46 µM
CCCCC(CC)COC(=O)c1ccccc1C(=O)O (stereo unspecified) [Mono(2-ethylhexyl) phthalate] | > 46 µM
Cc1c(Cn2ccnc2)c2ccccc2n1CCC(=O)O [Dazmegrel] | > 46 µM
CC12CCC(CC1)C(C)(C)O2 [Eucalyptol] | > 46 µM
CN(CC(=O)[NH+]1CCOCC1)Cc1c(Cl)cccc1NC(=O)c1ccccc1 [Fominoben hydrochloride] | > 46 µM
C=C[C@]1(C)C[C@@H](OC(=O)CSCCN(CC)CC)[C@]2(C)C(C)CC[C@]3(CCC(=O)[C@H]32)[C@@H](C)[C@@H]1O (stereo partly specified) [TIAMULIN] | > 46 µM
Cc1ncc(CNC(=O)N(CCCl)N=O)c(N)n1 [NIMUSTINE] | > 46 µM
COP(=S)(OC)Oc1ccc([S+](N)(=O)[O-])cc1 [Cythioate] | > 46 µM
CCCCCCCCCCCCCCCCCC(=O)[O][Al]([OH])[OH] [Aluminum monostearate] | > 46 µM
NC/1=N/C(=O)N(/C=C1)[C@@H]2O[C@H](CO)[C@@H](O)C2(F)F [GEMCITABINE HYDROCHLORIDE] | > 46 µM
C[C@H]1CCC[C@H](O)CCCCCc2cc(O)cc(O)c2C(=O)O1 [Zearalanol] | > 46 µM
O=C1CC[C@@H](C(=O)N2CSC[C@H]2C(=O)O)N1 [Pidotimod] | > 46 µM
Oc1cccc(O)c1 [Resorcinol] | > 46 µM
Cc1onc(-c2ccccc2)c1C(=O)N[C@@H]1C(=O)N2C1SC(C)(C)[C@@H]2C(=O)[O-] (stereo partly specified) [Oxacillin sodium salt] | > 46 µM
CO/N=C(\C(=O)N[C@@H]1C(=O)N2C(C(=O)[O-])=C(COC(C)=O)CS[C@@H]12)c1csc(N)n1.[Na+] [Cefotaxime sodium salt] | > 46 µM

Now from value to compound:

IC50 of cell viability | Structure (SMILES)
> 46 µM | CO/N=C1\C[C@]2(C[C@@H]3C[C@H](CC=C(C)C[C@@H](C)C=CC=C4CO[C@@H]5[C@@H](O)C(C)=C[C@@H](C(=O)O3)[C@]45O)O2)O[C@@H](/C(C)=C/C(C)C)[C@H]1C [Moxidectin]
> 46 µM | CN(C)CCCN1c2ccccc2C(C)(C)c2ccccc21 [Dimetacrine]
> 46 µM | NCc1ccc([S+](N)(=O)[O-])cc1 [Mafenide hydrochloride]
> 46 µM | N[S+](=O)([O-])c1cc(-c2nnn[nH]2)c(NCc2cccs2)cc1Cl [AZOSEMIDE]
> 46 µM | COc1ccc(C2C(=O)c3ccccc3C2=O)cc1 [ANISINDIONE]
> 46 µM | CCc1cc(Cl)c(OC)c(C(=O)NC[C@H]2CCCN2CC)c1O [S(-)Eticlopride hydrochloride]
> 46 µM | O=C(O)CCC(=O)Nc1ccc([S+](=O)([O-])Nc2nccs2)cc1 [Succinylsulfathiazole]
> 46 µM | C[C@](N)(Cc1ccc(O)cc1)C(=O)O [Metyrosine]
> 46 µM | CNC(=O)C[C@@H](N)C(=O)N[C@@H](C(=O)N[C@@H]1C(=O)N2[C@@H]1SC(C)(C)[C@@H]2C(=O)O)c1ccc(O)cc1 [ASPOXICILLIN]
> 46 µM | C[n+]1ccccc1/C=N\O [Pralidoxime chloride]
> 46 µM | CC/1=C(\CCN2CCC(CC2)=C(C3=CC=C(F)C=C3)C4=CC=C(F)C=C4)C(=O)N/5\C=C/SC5=N1 [Ritanserin]
> 46 µM | C=CS(=O)(=O)[O-] [Vinylsulfonic acid sodium salt solution]
> 46 µM | CO[C@@]1(NC(=O)Cc2cccs2)C(=O)N2C(C(=O)O)=C(COC(N)=O)CS[C@@H]21 [Cefoxitin sodium salt]
> 46 µM | C=C[C@@]1(C)C[C@H](OC(=O)CSC(C)(C)CNC(=O)[C@@H](N)C(C)C)[C@@]2(C)C(C)CC[C@@]3(CCC(=O)[C@@H]32)[C@H](C)[C@H]1O (stereo partly specified) [VALNEMULIN HYDROCHLORIDE]
> 46 µM | CC1=CC(=C(O)C(=C1C\C2=N\CCN2)C)C(C)(C)C [OXYMETAZOLINE]
> 46 µM | OCc1ccccc1O [SALICYL ALCOHOL]
> 46 µM | C[N+](C)(C)CCOP(=O)([O-])OP(=O)([O-])OCC1OC(n2ccc(N)nc2=O)[C@H](O)[C@@H]1O (stereo partly specified) [Cytidine 5'-diphosphocholine sodium salt hydrate]
> 46 µM | C\C(C)=C\CC1C(=O)N(N(C1=O)C2=CC=CC=C2)C3=CC=CC=C3 [Feprazone]
> 46 µM | CCc1cc(C(N)=S)ccn1 [Ethionamide]

IC50 of cell viability | Structure (SMILES)
> 46 µM | COc1cc(C(=O)NCc2ccc(OCCN(C)C)cc2)cc(OC)c1OC [Trimethobenzamide hydrochloride]
> 46 µM | c1cnc2cc3c(cc2n1)[C@@H]1CNC[C@@H]3C1 [Varenicline Tartrate]
> 46 µM | NC(=O)NNc1ccccc1 [PHENICARBAZIDUM]
> 46 µM | CCCCCCCCCCCCCCCCCCNC(=O)OC1CCN(C(=O)OC[C@H](COC(=O)N(Cc2cccc[n+]2CC)C(=O)c2ccccc2OC)OC)CC1 [Minopafant]
> 46 µM | C[N+]1(C)[C@@H]2CC(OC(=O)C(O)(c3cccs3)c3cccs3)C[C@H]1[C@@H]1O[C@@H]12 (stereo partly specified) [TIOTROPIUM BROMIDE MONOHYDRATE]
> 46 µM | CCCCN1CC(O)C(O)C(O)C1CO (stereo unspecified) [MIGLUSTAT]
> 46 µM | Cn1cnc2c1c(=O)[nH]c(=O)n2C [Theobromine]
> 46 µM | OCCN1CCN(CCCN2C3=C(C=CC=C3)\C=C/C4=C2C=CC=C4)CC1 [Opipramol HCl]
> 46 µM | COc1cc(C)c(Cc2cnc(N)nc2N)cc1OC [ORMETOPRIM]
> 46 µM | Clc1ccccc1CN1CCc2sccc2C1 [TICLOPIDINE]
> 46 µM | CCCCCCCCCCC(CO)CCCCCCCC (stereo unspecified) [OCTYLDODECANOL]
> 46 µM | Cc1ccc2c(n1)Oc1ccc(C(C)C(=O)OCC(=O)N(C)C)cc1C2 (stereo unspecified) [Mepranoprofen arbamel]
> 46 µM | CN(C)/N=N/c1nc[nH]c1C(N)=O [Dacarbazine]
> 46 µM | O=C(O)Cc1cccc(-c2cc(CCCCCCc3ccc(O[C@H]4O[C@H](CO)[C@@H](O)[C@H](O)[C@@H]4O)c(-c4cccc(CC(=O)O)c4)c3)ccc2O[C@H]2O[C@H](CO)[C@@H](O)[C@H](O)[C@@H]2O)c1 [BIMOSIAMOSE DISODIUM]
> 46 µM | CC/1=C/CC2CC1C2(C)C (stereo not drawn) [alpha-Pinene]
> 46 µM | COc1ccc(C(=O)c2ccc(C)cc2)c(O)c1 [Mexenone]
> 46 µM | CCC[C@@H]1C(=O)N2N(C1=O)\C(=N/C3=C2C=C(C)C=C3)N(C)C [Azapropazone]
> 46 µM | COc1cc2ncnc(Nc3ccc(F)c(Cl)c3)c2cc1OCCCN1CCOCC1 [Gefitinib]
> 46 µM | CC(=O)O.N=C(N)NCCCC(NC(=O)C1CCCN1C(=O)C1CSSCCC(=O)NC(Cc2ccc(O)cc2)C(=O)NC(Cc2ccccc2)C(=O)NC(CCC(N)=O)C(=O)NC(CC(N)=O)C(=O)N1)C(=O)NCC(N)=O.O.O.O (stereo unspecified) [DESMOPRESSIN ACETATE]

Source: the supplement of paper PMC3974653
